The record followed here is paper PMC6348381, “Discovery of an MLLT1/3 YEATS Domain Chemical Probe” (Angewandte Chemie (International Ed. in English), 2018).

In one assay the target is T1, MLLT1 YD (Homo sapiens, UniProt Q03111).
T1 construct: made in house; host or cells: E. coli Rosetta
T1 sequence (Q03111 1-138 limits assumed): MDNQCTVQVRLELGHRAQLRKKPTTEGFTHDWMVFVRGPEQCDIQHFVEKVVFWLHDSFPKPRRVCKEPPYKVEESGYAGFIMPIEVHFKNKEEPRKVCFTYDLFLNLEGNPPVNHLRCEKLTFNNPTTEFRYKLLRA
Nature of the assay: AlphaScreen (AS) assay, MLLT1 YEATS domain. The class given is binding. How it is done:
II.IV Protein Expression and Purification
Human bromodomains were cloned, expressed and purified as previously described. The cloning, expression and purification of human YEATS domains are described as follows; Sequences for the wild type YEATS domains of MLLT1, MLLT3, GAS41 and YEATS2 were cloned into expression vectors (Table S1). E. coli Rosetta cells were grown in TB medium at 37°C. Overexpression was induced after five hours by addition of IPTG to a final concentration of 0.4 mM and cells were incubated at 17°C overnight. Cells were harvested by centrifugation and the cell pellet was resuspended in cold binding buffer (50 mM Tris at pH 7.5, 500 mM NaCl, 20 mM imidazole, 2 mM DTT) on a magnetic stirring plate at 4°C. The suspension was lysed using an Avestin EmulsiFlex-C5 homogeniser (1 pass without pressure, four passes with pressure between 1000-1500 bar). The lysate was clarified via centrifugation at 16,000 rpm at 4°C for 1 hour (JLA-16 rotor in Beckmann Coulter Avanti J- […]
The supernatant was loaded onto a standard NiNTA column (HisTrap
FF, 5 ml, GE Healthcare Lifesciences) on an ÄKTAxpress system (GE). After washing with binding buffer, the target protein was eluted at 300 mM imidazole. The eluted peak fractions were pooled and concentrated to 5 ml (Amicon concentrators, 10 kDa molecular weight cut off (MWCO)) and then separated via size exclusion chromatography (buffered with 20 mM Tris at pH 7.5, 500 mM NaCl, 2 mM DTT) using a GE Superdex 75 column on an […]
(NanoDrop ND-1000 Spectrophotometer) and protein identity was verified via SDS-PAGE and LC/MS. Pooled fractions were then again concentrated to at least 2 mg/ml and stored at […]
(1 picture or pasted object on this page, not shown here)
A general note: Alpha assays give light when donor and acceptor beads are brought close together.

In another assay the target is T2, MLLT1 (Homo sapiens, UniProt Q03111).
T2 construct: We also developed a full length MLLT1:Histone 3.3 (H3.3) NanoBRET assay; host or cells: HEK293
T2 sequence (Q03111 whole entry): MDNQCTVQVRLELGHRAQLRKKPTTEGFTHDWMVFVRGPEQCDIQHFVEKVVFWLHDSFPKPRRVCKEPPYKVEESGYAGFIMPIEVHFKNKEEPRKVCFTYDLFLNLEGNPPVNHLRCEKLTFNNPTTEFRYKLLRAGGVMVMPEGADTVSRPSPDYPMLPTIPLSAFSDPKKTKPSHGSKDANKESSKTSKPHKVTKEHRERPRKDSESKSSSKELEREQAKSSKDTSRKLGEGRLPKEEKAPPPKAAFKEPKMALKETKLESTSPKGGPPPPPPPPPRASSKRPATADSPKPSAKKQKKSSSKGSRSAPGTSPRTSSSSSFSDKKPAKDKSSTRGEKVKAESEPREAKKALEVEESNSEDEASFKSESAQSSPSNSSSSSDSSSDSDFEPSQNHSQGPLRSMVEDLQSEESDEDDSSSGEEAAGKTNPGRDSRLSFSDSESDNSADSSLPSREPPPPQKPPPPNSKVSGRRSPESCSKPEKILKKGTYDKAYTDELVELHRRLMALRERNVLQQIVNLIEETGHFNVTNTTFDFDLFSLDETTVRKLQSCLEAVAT
Nature of the assay: NanoBRET assay, full length MLLT1:Histone 3.3 in HEK293 cells. The class given is cell-based. As to conditions: relative to the DMSO control. For orientation: BRET reads energy transfer from a luciferase to a nearby fluorophore.

A further assay has as its target T3, MLLT3 (Homo sapiens, UniProt P42568).
T3 construct: in full length MLLT3 N-terminal NanoLuc, Histone; host or cells: HEK293
T3 sequence (P42568 1-568): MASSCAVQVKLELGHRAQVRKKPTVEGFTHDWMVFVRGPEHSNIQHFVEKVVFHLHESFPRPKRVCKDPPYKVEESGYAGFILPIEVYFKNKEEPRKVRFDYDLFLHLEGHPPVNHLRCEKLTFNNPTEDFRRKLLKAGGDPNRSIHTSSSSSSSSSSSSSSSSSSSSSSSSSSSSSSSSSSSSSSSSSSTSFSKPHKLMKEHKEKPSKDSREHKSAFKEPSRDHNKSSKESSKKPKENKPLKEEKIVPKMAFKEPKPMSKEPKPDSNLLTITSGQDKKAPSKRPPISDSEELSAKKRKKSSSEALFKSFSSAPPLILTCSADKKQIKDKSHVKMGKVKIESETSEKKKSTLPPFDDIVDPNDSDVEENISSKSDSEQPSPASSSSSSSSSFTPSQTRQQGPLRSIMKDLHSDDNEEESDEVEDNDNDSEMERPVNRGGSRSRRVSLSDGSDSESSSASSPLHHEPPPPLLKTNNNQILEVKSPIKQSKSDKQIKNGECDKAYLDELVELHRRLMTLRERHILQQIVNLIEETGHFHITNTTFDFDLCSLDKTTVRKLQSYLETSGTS
Nature of the assay: NanoBRET assay, full-length MLLT3-NanoLuc / histone H3.3-HaloTag in HEK293 cells. The class given is cell-based. The following applies: 24 h. How it is done:
II.V NanoLuciferase Bioluminescent Resonance Energy Transfer (NanoBRET) Assay[2]
HEK293 cells ([…]) were plated in each well of a 6-well plate after 6 h cells were co-transfected with Histone H3.3-HaloTag (NM_002107) and a NanoLuciferase fusion of MLLT1 or MLLT3 (WT sequences from Promega HaloTag® human ORF in pFN21A) at a 1:500 and 1:10 (NanoLuc® to HaloTag®) ratio respectively with FuGENE HD transfection regent. Sixteen hours post-transfection, cells were collected and exchanged into media containing phenol red-free DMEM and 4% FBS in the absence (control sample) or the presence (experimental sample) of 100 nM NanoBRET 618 fluorescent ligand (Promega).
Cell density was adjusted to 2 x 10^5 cells/mL and then seeded 100 µL/well in a white 96-well plate (Corning Costar #3917). Compounds were then added directly to media (in the presence of SAHA 2.5 µM) at final concentrations 0.01-30 μM or an equivalent amount of DMSO as a vehicle control, and the plates were incubated for 24 h at 37 °C in the presence […]
NanoBRET Nano-Glo substrate (Promega) was added to both control and experimental samples at a final concentration of 10 µM. Readings were performed within 5 minutes using a ClarioSTAR (BMG labtech) equipped with LP 480 and 610 nm filters. A corrected BRET ratio was calculated and is defined as the ratio of the emission at 610 nm/[…] for experimental samples minus the emission at 6 10 nm/640 nm for control samples (not incubated with NanoBRET fluorescent ligand). BRET ratios are expressed as milliBRET units (mBU), where 1 mBU corresponds to the corrected BRET ratio multiplied by 1000.
3.3 C-terminal HaloTag in HEK293 cells. Treatment with SAHA (2.5 µM) alone increases MLLT3- […]
dependent manner. Mean±SD of BRET ratio (mBU), n=4 technical replicates.
(also on this page, place not known: 5) -well H3.3 -HaloTag pFN21A ) ( NanoLuc® H aloTag®) post -transfection, red -free Nano -Glo 10 5 6 10 6 10 l igand). cells . […]

A further assay has as its target T4, CBP (Homo sapiens, UniProt Q92793).
T4 construct: made in house
Nature of the assay: AlphaScreen selectivity screen, CBP. In kind it is binding. An excerpt:
IC50 (µM) IC50 (µM) IC50 (µM) IC50 (µM) (µM) (µM) (µM)
Supplementary Table 1. […]

SMILES strings stand for the structures.

For orientation: IC50 means the midpoint of a concentration-inhibition curve.

T4 sequence (Q92793 1085-1192 limits assumed): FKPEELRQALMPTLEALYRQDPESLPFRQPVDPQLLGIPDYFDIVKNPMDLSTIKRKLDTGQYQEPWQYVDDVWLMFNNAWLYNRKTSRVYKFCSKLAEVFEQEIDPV

`COC(=O)c1ccc(C(=O)Nc2ccc3[nH]c(CN4CCCCC4)nc3c2)cc1` [Compound 1] returned an IC50 against MLLT1 YD of 2100 ± 780 nM.

Turning to `C[C@H]1CCCN1Cc1nc2cc(NC(=O)c3ccc4c(cnn4C)c3)ccc2[nH]1` [Compound 92], the “BRET activity (mBU), MLLT1:H3.3 NanoBRET” value on MLLT1 is “no reduction in mBU”. The IC50 at MLLT3 (in the presence of 2.5 μM SAHA) is 400 ± 80 nM; against CBP (AlphaScreen selectivity screen), greater than 10000 nM. In addition, the “MLLT3-Histone 3.3 interaction (mBU)” value at MLLT3 (representative assay) is on record as “can reduce this interaction”. In addition, at CBP (10 μM using AS), the “inhibition of CBP” value is “no inhibition”.
